# Where two headings read alike, the source gives them in different places.
# Experiments:
# [1] = tested on: E. coli K12 knockout pool (BacPool) and wild type; test: Prodrug screen, growth/no growth of BacPool knockout mix versus wild type; format: cell-based; conditions: compounds at about 46-50 μg/ml, OD600 after overnight incubation
# Text: A complete, ordered E. coli K12 knockout library of 4320 genes and predicted ORFs (the Keio library) was used (Baba et al. (2006). Mol. Systems Biol. 2:2006.0008). The knockouts were constructed using the Wanner method with a kanamycin cassette replacing the ORFs (Datsenko et al. (2000) Proc. Natl. Acad. Sci. USA 97:6640-6645). All strains of this library were combined in a mix BacPool1) for screening. This permitted screening of the library against all strains simultaneously, instead of screening a full industry-size library against each of the individual E. coli 4×10^3 knockout strains.
# The library mix was prepared by first culturing all strains overnight in LB medium, and then adding equal aliquots into a tube. This material was then mixed, dispensed in vials and stored at −80° C. For the screen, one vial was thawed, diluted to 10^5 cells/ml in LB, and dispensed into 384 well microtiter plates. The compounds were added from DMSO stocks at a final concentration of 46 μg/ml. The same compounds were added to plates containing the wild type isogenic control. Screening was performed at the Harvard NSRB/NERCE screening facility that host a collection of 150,000 compounds (see Tables 1A and 1B). All screens at NSRB/NERCE were performed in duplicate, which strongly decreases the rate of false positives and negatives. For each tested molecule there are three possible scenarios when scoring for growth/no growth:
# Growth in both the BacPool and K12 wells: indicates lack of antimicrobial activity;
# Growth inhibition in both the BacPool and K12 wells: a possible antibiotic (direct activity) or generally toxic compound is present, but is not a prodrug; or
# Growth of a BacPool well and no growth of the K12 well: a prodrug hit.
# After an overnight incubation of plates at 37° C., the plates were read at OD600. Compounds that had no effect on the growth of the mix and inhibited the growth of the wild type were recorded as hits. The wells with growth indicated a prodrug hit that is not converted into a drug by a particular deletion mutant in the mix. The mutant strain is then identified in a secondary screen (see Example 2).
# Yet another screen was performed on 147,500 compounds, using the protocol described below. […]
# An E. coli KanR culture was grown in LB broth containing 50 μg/ml Kanamycin for 20 hrs at 37° C. in a shaking incubator. […] The plates were then incubated for 20 hrs at 37° C., and then the plates were read for Optical Density at 600 nm and were scored for growth/no growth. […]
# Hits were identified by calculating the % of inhibition of growth of E. coli measured by OD600. The data were analyzed as follows: negative controls (N), positive controls (P), and compounds (X) ODs were separately averaged and the resulting means were used to calculate % of inhibition of E. coli growth: […]
# [2] = tested on: E. coli K12; test: Growth/no growth control wells (Z′-factor), OD600; format: cell-based
# Experimental: The general procedure to establish the Z′-factor was tested. Since the output of the screening is a typical growth/no growth assay, this was performed by comparing growth in control wells to those containing a model antimicrobial, ciprofloxacin at 30 μg/ml. E. coli K12 were cultured in LB medium, and exponentially-growing cells were dispensed at 10^6/ml in 384-well microtiter plates, 30 μl/well. Six plates were used in this experiment. Ciprofloxacin was added to half of the wells (3 μl in LB, bringing the final volume to 33 μl). After an overnight incubation at 37 C, the OD600 of the plates were read, and the values of each well were used to calculate Z′-factor: Z′=1−(3SD++3SD−)/IAve+−Ave−I, where: SD+=positive control standard deviation; SD−=negative control standard deviation; Ave+=positive control average; and Ave−=negative control average). The following table for Z′-factor interpretation was used:
# Before beginning the screen, a Z′-test was run. This was conducted by comparing growth in negative control wells to those with the prodrug AZT at 5 μg/ml. E. coli K12 cells were cultured in LB medium, and exponentially-growing cells were dispensed at 10^5/ml in 384-well microtiter plates, 30 μl/well. Four plates were used in this experiment. After an overnight incubation at 37° C., the OD600 of the plates were read, and the values of each well were used to calculate Z′-factor: […]
# [3] = tested on: P. aeruginosa; test: Killing of logarithmic, stationary and biofilm cultures, colony count; format: cell-based; conditions: for percentage of live cells: 5 μg/ml, 6 hrs
# Experimental: Persister cells in planktonic and biofilm populations are characterized for their antibiotic sensitivity in this example. Several bactericidal antimicrobials were chosen to test the resistance of P. aeruginosa to killing—ofloxacin, a fluoroquinolone; tobramycin, an aminoglycoside; carbenicillin, a β-lactam; and peracetic acid, a disinfectant oxidant (Spoering et al. (2001) J. Bacteriol. 183:6746-6751). Biofilms were grown essentially by the method of Ceri (Ceri et al. (1999) J. Clin. Microbiol. 37:1771-1776) and as described in Brooun et al. (2000) Antimicrob. Agents Chemother. 44:640-646. The device used for biofilm formation is a platform carrying 96 polystyrene pegs that fit in a microtiter plate. Preformed biofilms were incubated in the presence of an antimicrobial agent, and survival was measured after disrupting the biofilms by colony count.
# Logarithmic state, stationary and biofilm cultures were challenged with carbenicillin. Carbenicillin is a bactericidal antibiotic that, similarly to most β-lactams, only kills rapidly growing cells (Tuomanen et al. (1986) Scand. J. Gastroenterol. Suppl:10-14). […] The amount of killing of logarithmic cells approached a plateau at concentrations above 1.67×MIC, indicating the presence of a persister subpopulation. These 0.1% cells in the rapidly growing logarithmic culture were invulnerable to killing by carbenicillin at 600 μg/ml.
# Unlike carbenicillin, ofloxacin can kill non-growing cells (Brooun et al. (2000) Antimicrob. Agents Chemother. 44:640-646). Logarithmic, stationary and biofilm cultures were challenged with ofloxacin over a wide range of concentrations, from 1×MIC (0.5 μg/ml) to 30×MIC (15 μg/ml). After a 6 hrs incubation time with the antibiotic, viability was determined by colony count. The majority of cells in the three populations examined were killed at low concentrations of ofloxacin (FIG. 3B). The killing in all three cultures was distinctly biphasic, indicating the presence of persister cells. The levels of persisters were dramatically higher in the dense stationary planktonic and biofilm cultures as compared to logarithmic cells. […] At 5 μg/ml ofloxacin, which is the clinically achievable concentration (Schulz et al. (1997) Pharmazie 52:895-911), the percentage of live cells was 0.001% in the logarithmic population, 0.1% in the biofilm and 2.5% in the stationary culture (FIG. 3B).
# Tobramycin at 50 μg/ml (the maximal clinically achievable concentration is 10 μg/ml), (Schulz et al. (1997) Pharmazie 52:895-911) eliminated 90% of the biofilm cells, and the remaining population declined gradually with increasing amounts of the antibiotic. At high concentrations surviving persisters became apparent. Tobramycin was ineffective against stationary planktonic cells, apparently due to the dependence of killing of growth.
# Peracetic acid, an oxidizing disinfectant, was used in order to test the ability of a sterilizing agent to act against persisters. […] Similar results showing biphasic killing, and high level of persisters in stationary and biofilm populations, also were obtained with S. aureus and E. coli (Keren et al. (2004) FEMS Microbiol. Lett. 230:13-18).
# [4] = tested on: P. aeruginosa; test: MIC; format: cell-based; conditions: Pseudomonas aeruginosa; 1×MIC
# [5] = Schulz et al. (1997); cited from earlier work
# [6] = tested on: E. coli K12 wt; test: MIC, standard broth microdilution assay; format: cell-based; conditions: LB broth, 10^5 cells per well, 1 mM IPTG
# Experimental: (§1) The ASKA strains of interest are validated for functional expression of the enzyme. If the protein is not expressed from a given expression vector the ORF is recloned. A strain overexpressing the activating enzyme from the ASKA library is then tested with the hit compound. If the hit has greater activity against this overexpressing strain as compared to the wild type, this indicates a prodrug. The test is performed in a standard broth microdilution assay for MIC determination. Hits with the lowest wild type MIC are then examined.
# (§2) Cells were tested in a standard broth microdilution assay, inoculating 10^5 cells per well of a microtiter plate in LB broth. Overexpression and deletion strains were compared to the appropriate isogenic wild type. IPTG was added at 1 mM to growth medium. Experiments involving nfnB and nfsA strains were performed under anaerobic conditions.
# [7] = tested on: E. coli K12 overexpressing activating enzyme; test: MIC, standard broth microdilution assay, overexpression strains; format: cell-based
# Experimental: as §1, §2
# [8] = tested on: E. coli K12 Δactivating enzyme; test: MIC, standard broth microdilution assay, deletion strains; format: cell-based; conditions: Escherichia coli, anaerobic conditions
# Experimental: as §1, §2
# [9] = tested on: E. coli K12 ΔtolC overexpressing activating enzyme; test: MIC, standard broth microdilution assay, tolC deletion (MDR efflux); format: cell-based
# Text: Prodrugs are activated by activating enzymes into reactive molecules that bind to their targets, creating an irreversible sink. This may lead to insensitivity of the overall process to MDR efflux. In order to test this possibility, an E. coli K12 with a deletion in tolC coding for the outer membrane porin that is a component of the transenvelope MDRs was utilized (Li (2004) Drugs 64:159-204). This strain is highly sensitive to antibiotics (Tegos et al. (2002) Antimicrob. Agents Chemother. 46:3133-3141). […] The substrate specificity of AcrAB is remarkably broad, and includes essentially all small molecular weight amphipathic compounds. The AcrAB substrates include anions (SDS, fatty acids, bile acids), neutral compounds (macrolides, chloramphenicol, tetracyclines) and cations or compounds that can form cations (acridine, quaternary compound antiseptics, fluoroquinolones). AcrAB can extrude a natural broad spectrum antibiotics that evolved for good penetration, chloramphenicol and tetracycline; and also extrude synthetic broad-spectrums, the fluoroquinolones.
# as §2
# [10] = tested on: wild type bacterial strain (E. coli), stationary state; test: Dose-dependent killing of stationary state cells, plating and colony count; format: cell-based; conditions: anaerobic, 6 hours incubation, biphasic killing
# Experimental: FIG. 10 is a graphical representation of the dose-dependent killing of E. coli by metronidazole. Stationary phase cells grown in LB medium in the presence of 1 mM IPTG under anaerobic conditions were challenged for 6 hrs with increasing concentrations of metronidazole and then plated on LB agar plates.
# The killing ability of metronidazole was examined. The wild type bacterial strain was grown to stationary state under anaerobic conditions, and dose-dependent killing after incubation with metronidazole for 6 hours was detected by plating and colony count (FIG. 10). […] This is the first observation of a sterilizing activity of an antibiotic against a stationary state bacterial population. Previously, it was only possible to kill persisters and sterilize an infection with peracetic acid (FIG. 2); (Spoering et al. (2001) J. Bacteriol. 183:6746-6751).
# [11] = tested on: strain overexpressing the activating enzyme, NfnB or NfsA; test: as above; format: cell-based, E. coli; conditions: for sterilization of the population: nfnB^+ strain, limit of detection 6 logs of killing, <10 cells/ml
smiles,measurement,setting,value
Cc1cn([C@H]2C[C@H](N=[N+]=[N-])[C@@H](CO)O2)c(=O)[nH]c1=O [zidovudine],screen outcome (prodrug hit / direct activity),[1],prodrug hits
same,inhibition of E. coli growth,[2]; positive control at 5 μg/ml,complete inhibition
NC[C@H]1O[C@H](O[C@H]2[C@H](O)[C@@H](O[C@H]3O[C@H](CO)[C@@H](O)[C@H](N)[C@H]3O)[C@H](N)C[C@@H]2N)[C@H](N)C[C@@H]1O [tobramycin],biofilm cells eliminated,"[3]; biofilm, 50 μg/ml",90%
same,logarithmic persisters,"[3]; logarithmic cells, 1 to 1500 μg/ml",no logarithmic persisters were detected
same,killing of stationary cells,[3]; stationary planktonic cells,ineffective
same,MIC,[4],1 µg/mL
same,(maximal) clinically achievable concentration,[5],10 µg/mL
CC1COc2c(N3CCN(C)CC3)c(F)cc3c(=O)c(C(=O)O)cn1c23 (stereo not shown) [ofloxacin],percentage of live cells,[3]; biofilm,0.1%
same,percentage of live cells,[3]; logarithmic population,0.001%
same,percentage of live cells,[3]; stationary culture,2.5%
same,MIC,[4],0.5 µg/mL
same,(maximal) clinically achievable concentration,[5],5 µg/mL
Cc1ncc([N+](=O)[O-])n1CCO [Metronidazole],MIC,"[6]; Escherichia coli, K12WT, read-out: MIC",> 500 µg/mL
same,MIC,[6],563 µg/mL
same,sensitivity of the overexpression strain as compared to the wild type control,[7]; E. coli overexpressing NfnB,greater than 50 fold
same,MIC,[7]; Escherichia coli,8.8 µg/mL
same,MIC,"[7]; nfnB^+ overexpressing strain, 1 mM IPTG, anaerobic conditions",nfnB^+ 8.8 μg/ml
same,MIC,"[7]; nfsA^+ overexpressing strain, 1 mM IPTG, anaerobic conditions",nfsA^+ 8.8 μg/ml
same,MIC,"[7]; nfsA^+ overexpressing strain, 1 mM IPTG, anaerobic conditions, listed as metronidazole",8.8 µg/mL
same,MIC,[8]; nfnB^− deletion strain,1120 µg/mL
same,MIC,[8]; nfsA^− deletion strain,2250 µg/mL
same,MIC,[9]; Escherichia coli,8.8 µg/mL
same,MIC,"[9]; ΔtolC, nfsA^+ overexpressing strain",nfsA^+ 8.8 μg/ml
same,tolerant persister cells,[10],about 1%
same,sterilization of the population,[11],completely “sterilized”
same,sterilization of the population,[11]; listed as metronidazole,complete sterilization
same,surviving persisters,"[11]; strain overexpressing NfnB or NfsA, stationary state, 6 hours",no surviving persisters were detected
O=C(O)c1cn(C2CC2)c2cc(N3CCNCC3)c(F)cc2c1=O [ciprofloxacin],growth in wells with antibiotic,"[2]; 30 μg/ml, overnight at 37 C",no case of substantial growth

# — patent US20110046142A1, “ANTIBIOTIC COMPOUNDS” (priority 2007, published 2011)
